Common to all, as to type: cell-based
One assay has as its target T1, human TLR7 (Homo sapiens, UniProt Q9NYK1).
T1 construct: host or cells: HEK-Blue cells
T1 sequence (Q9NYK1 27-1049): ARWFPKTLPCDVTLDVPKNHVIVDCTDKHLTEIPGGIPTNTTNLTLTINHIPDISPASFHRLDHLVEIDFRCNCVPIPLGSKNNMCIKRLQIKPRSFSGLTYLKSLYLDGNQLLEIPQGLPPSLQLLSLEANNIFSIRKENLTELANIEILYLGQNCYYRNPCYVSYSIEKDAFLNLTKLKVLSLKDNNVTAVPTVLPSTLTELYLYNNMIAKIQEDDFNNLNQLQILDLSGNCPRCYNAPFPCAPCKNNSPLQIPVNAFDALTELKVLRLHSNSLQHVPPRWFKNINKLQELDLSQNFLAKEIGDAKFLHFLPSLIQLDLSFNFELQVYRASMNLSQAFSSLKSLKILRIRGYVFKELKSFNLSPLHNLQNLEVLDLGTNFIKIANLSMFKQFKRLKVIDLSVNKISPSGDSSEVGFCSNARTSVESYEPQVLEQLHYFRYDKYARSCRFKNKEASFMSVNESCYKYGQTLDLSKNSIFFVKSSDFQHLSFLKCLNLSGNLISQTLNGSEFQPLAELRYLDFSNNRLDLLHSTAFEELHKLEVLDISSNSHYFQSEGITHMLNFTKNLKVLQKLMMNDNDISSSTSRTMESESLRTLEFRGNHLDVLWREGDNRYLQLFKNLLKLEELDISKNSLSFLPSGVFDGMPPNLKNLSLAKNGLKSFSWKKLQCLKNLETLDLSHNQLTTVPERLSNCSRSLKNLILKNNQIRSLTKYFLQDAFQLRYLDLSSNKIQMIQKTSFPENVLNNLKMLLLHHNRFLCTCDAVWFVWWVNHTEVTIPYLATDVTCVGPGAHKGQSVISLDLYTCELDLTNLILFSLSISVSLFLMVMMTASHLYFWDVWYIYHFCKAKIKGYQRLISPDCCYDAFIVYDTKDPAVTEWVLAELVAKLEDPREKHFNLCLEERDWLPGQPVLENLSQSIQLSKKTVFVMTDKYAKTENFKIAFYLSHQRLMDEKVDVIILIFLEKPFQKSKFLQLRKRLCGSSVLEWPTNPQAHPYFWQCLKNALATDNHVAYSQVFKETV
In words: TLR7 inhibition reporter assay (HEK-Blue cells, SEAP reporter, gardiquimod stimulation). As to conditions: HEK-Blue cells overexpressing human TLR7, SEAP reporter, gardiquimod 7.5 μM. The gist of the method:
(§1)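 30 min RT cpd pre-incubation (0.05 nM–50 μM final dose response) → agonist: gardiquimod 7.5 μM / R848 15.9 μM / ODN2006 5 nM for TLR7/8/9 resp. → 22 h, 37° C → SEAP via detection medium. % inhibition vs agonist+DMSO and reference inhibitor controls.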
On the technique in general: In a reporter assay the amount or activity of a reporter protein is the signal.

The target in a further assay is T2, human TLR8 (Homo sapiens, UniProt Q9NR97).
T2 construct: host or cells: HEK-Blue cells
T2 sequence (Q9NR97 27-1041): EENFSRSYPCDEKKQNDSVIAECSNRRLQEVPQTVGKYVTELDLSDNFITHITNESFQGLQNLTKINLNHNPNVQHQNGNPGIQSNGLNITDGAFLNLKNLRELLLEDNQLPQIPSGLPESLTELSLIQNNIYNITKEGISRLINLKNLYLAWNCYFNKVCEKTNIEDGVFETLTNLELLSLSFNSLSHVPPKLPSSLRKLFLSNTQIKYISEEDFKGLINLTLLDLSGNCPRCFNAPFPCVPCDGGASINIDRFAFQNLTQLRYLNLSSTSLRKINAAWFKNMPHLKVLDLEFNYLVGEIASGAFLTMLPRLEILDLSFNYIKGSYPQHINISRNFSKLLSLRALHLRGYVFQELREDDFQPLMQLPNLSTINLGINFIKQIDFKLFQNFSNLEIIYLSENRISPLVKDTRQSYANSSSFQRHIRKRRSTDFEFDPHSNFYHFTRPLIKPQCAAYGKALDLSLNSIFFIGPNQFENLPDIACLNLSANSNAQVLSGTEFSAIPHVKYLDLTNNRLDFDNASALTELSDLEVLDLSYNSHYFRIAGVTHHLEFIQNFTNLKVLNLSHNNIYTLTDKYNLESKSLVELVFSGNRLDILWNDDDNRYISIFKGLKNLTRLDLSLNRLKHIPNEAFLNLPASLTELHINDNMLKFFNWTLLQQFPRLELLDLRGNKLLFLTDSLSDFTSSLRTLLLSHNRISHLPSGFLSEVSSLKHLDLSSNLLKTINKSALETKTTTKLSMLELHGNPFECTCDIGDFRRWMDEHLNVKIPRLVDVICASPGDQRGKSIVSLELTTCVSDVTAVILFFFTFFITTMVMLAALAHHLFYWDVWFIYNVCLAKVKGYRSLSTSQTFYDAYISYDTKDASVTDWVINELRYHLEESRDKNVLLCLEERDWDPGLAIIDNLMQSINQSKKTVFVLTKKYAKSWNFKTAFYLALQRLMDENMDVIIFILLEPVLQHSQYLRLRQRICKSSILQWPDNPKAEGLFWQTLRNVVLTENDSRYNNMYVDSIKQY
The assay can be described thus: TLR8 inhibition reporter assay (HEK-Blue cells, SEAP reporter, R848 stimulation). The note with it: HEK-Blue cells overexpressing human TLR8, SEAP reporter, R848 15.9 μM. The procedure, abridged: as §1

Another assay has as its target T3, human TLR9 (Homo sapiens, UniProt Q9NR96).
T3 construct: host or cells: HEK-Blue cells
T3 sequence (Q9NR96 26-1032): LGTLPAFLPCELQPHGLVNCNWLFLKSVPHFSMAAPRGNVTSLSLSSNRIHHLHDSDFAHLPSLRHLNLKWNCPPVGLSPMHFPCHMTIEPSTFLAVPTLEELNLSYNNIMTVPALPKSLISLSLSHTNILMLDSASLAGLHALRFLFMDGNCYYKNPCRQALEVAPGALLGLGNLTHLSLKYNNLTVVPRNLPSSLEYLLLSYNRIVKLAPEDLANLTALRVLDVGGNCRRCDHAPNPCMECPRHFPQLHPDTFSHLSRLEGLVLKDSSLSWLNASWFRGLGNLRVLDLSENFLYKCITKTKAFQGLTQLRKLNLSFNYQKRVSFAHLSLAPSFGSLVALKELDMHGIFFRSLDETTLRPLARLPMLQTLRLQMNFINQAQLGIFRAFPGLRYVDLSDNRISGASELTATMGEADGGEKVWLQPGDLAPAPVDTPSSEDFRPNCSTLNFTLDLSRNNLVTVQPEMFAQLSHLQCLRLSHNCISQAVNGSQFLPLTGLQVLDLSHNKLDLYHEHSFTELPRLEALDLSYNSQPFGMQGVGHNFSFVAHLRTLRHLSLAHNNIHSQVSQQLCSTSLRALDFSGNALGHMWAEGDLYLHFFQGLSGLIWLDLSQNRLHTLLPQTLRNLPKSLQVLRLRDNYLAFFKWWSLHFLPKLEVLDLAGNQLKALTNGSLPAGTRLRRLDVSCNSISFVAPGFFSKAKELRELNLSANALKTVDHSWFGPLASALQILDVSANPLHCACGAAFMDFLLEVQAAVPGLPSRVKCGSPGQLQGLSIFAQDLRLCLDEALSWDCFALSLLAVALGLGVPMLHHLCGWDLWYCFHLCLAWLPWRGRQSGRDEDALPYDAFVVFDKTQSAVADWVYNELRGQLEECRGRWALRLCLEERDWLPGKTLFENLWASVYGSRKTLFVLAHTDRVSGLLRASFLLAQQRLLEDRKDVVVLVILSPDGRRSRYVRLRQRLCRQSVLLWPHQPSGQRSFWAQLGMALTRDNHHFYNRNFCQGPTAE
The assay can be described thus: TLR9 inhibition reporter assay (HEK-Blue cells, SEAP reporter, ODN2006 stimulation). As to conditions: HEK-Blue cells overexpressing human TLR9, SEAP reporter, ODN2006 5 nM. The procedure, abridged:
as §1

The IC50 is the concentration that inhibits the measured activity by half. Higher therefore signals a need for much substance. Regarding `Cc1cc(-c2[nH]nc(-c3ccc(C4CN(CC(C)(C)O)C4)cc3)c2C(C)C)cn2ncnc12` [Example 336, 1-(3-(4-(4-isopropyl-5-(8-methyl-[1,2,4]triazolo[1,5-a]pyridin-6-yl)-1H-pyrazol-3-yl)phenyl)azetidin-1-yl)-2-methylpropan-2-ol], the IC50 at human TLR7 was 0.0135 µM; on human TLR8 it was 0.0397 µM; against human TLR9, 38.1 µM.
The matching figures for `CC(C)c1c(C(=O)NC2CCN(C(C)C)CC2)n[nH]c1-c1cn(C)c2ncccc12` [Example 42]: 0.00299 µM, 0.00677 µM and 19 µM.
Turning to `Cc1cc(-c2[nH]nc(-c3ccc(C(N)=O)cc3)c2C(C)C)cn2ncnc12` [Example 229], the IC50 came out at 0.0071 µM at human TLR7, 0.00371 µM on human TLR8 and 4.96 µM against human TLR9.
For `Cc1cc(-c2[nH]nc(C(=O)N[C@H]3CC[C@@H](NCC4CCOCC4)CC3)c2C(C)C)cn2ncnc12` [Example 92], in that order: 0.00031 µM, 0.00234 µM and 4.11 µM.
Regarding `Cc1cc(-c2[nH]nc(-c3ccc4c(c3)CNCC4)c2C(C)C)cn2ncnc12` [Example 231], the IC50 was found to be 0.00632 µM at human TLR7, 0.00119 µM against human TLR8 and 49.5 µM on human TLR9.
In the case of `Cc1cc(-c2[nH]nc(C(=O)N[C@H]3CCCN(C)C3)c2C(C)C)cn2ncnc12` [Example 162], the concentration for half-maximal inhibition (IC50) against human TLR7 was 0.0026 µM; against human TLR8, 0.0157 µM; against human TLR9, 20.3 µM.
The matching figures for `CCN1CC(c2ccc(-c3n[nH]c(-c4cc(OC)c5ncnn5c4)c3C(C)C)cc2)C1` [Example 329]: 0.414 µM, 0.0603 µM and 14.7 µM.
Regarding `Cc1cc(-c2[nH]nc(-c3ncc4c(n3)CCN(C3COC3)C4)c2C(C)C)cn2ncnc12` [Example 251], the results for the IC50 at human TLR7, on human TLR8 and against human TLR9 were 0.0106 µM, 0.00268 µM and 45.3 µM, respectively.
Take `Cc1cc(-c2[nH]nc(C(=O)N[C@H]3CC[C@H](NC4CCOCC4)CC3)c2C(C)C)cn2ncnc12` [Example 116]: the IC50 against human TLR7 was 0.00311 µM; against human TLR8 it was 0.00191 µM; against human TLR9 it was 3.88 µM.
In the case of `Cc1cc(-c2[nH]nc(-c3cnc(N4CCNCC4)nc3)c2C(C)C)cn2ncnc12` [Example 407], the IC50 is 0.0286 µM at human TLR7, 0.279 µM at human TLR8 and > 50 µM at human TLR9.
For `Cc1cc(-c2[nH]nc(C(=O)N[C@H]3CC[C@@H](N)CC3)c2C(C)C)cn2ncnc12` [Example 63], in that order: 0.0248 µM, 0.0146 µM and > 50 µM.
The matching figures for `Cc1cc(-c2[nH]nc(C3CCC(N(C)C(=O)C4CNC4)CC3)c2C(C)C)cn2ncnc12` (stereo not drawn) [compound 301]: 0.00777 µM, 0.00153 µM and 12.3 µM.
The matching figures for `Cc1cc(-c2[nH]nc(C(=O)NC3CCN(C(C)C)CC3)c2CC(F)(F)F)cn2ncnc12` [Example 193]: 0.00197 µM, 0.00445 µM and 7.63 µM.
As for `COc1cc(-c2[nH]nc(C(=O)NC3CCN(C)CC3)c2C(C)C)cn2ncnc12` [Example 11], the IC50 was 0.00378 µM against human TLR7, 0.00931 µM at human TLR8 and 18.5 µM against human TLR9.
The matching figures for `Cc1cc(-c2[nH]nc(-c3ccc(C4CN(C(C)C)C4)cc3)c2C(C)C)cn2ncnc12` [Example 327]: 0.0075 µM, 0.00711 µM and 15.8 µM.
Regarding `Cc1cc(-c2[nH]nc(C(=O)NCC3CN(CC4(C)COC4)CCO3)c2C(C)C)cn2ncnc12` (stereo not drawn) [Example 137], the IC50 was determined as 0.0034 µM on human TLR7, 0.0408 µM against human TLR8 and 6.73 µM on human TLR9.
With `Cc1cc(-c2[nH]nc(-c3ccc(C4CCN(CC(C)(C)C)CC4)cn3)c2C(C)C)cn2ncnc12` [Example 373], the IC50 at human TLR7 amounted to 0.0819 µM; at human TLR8 it was 0.0345 µM; against human TLR9, 42.1 µM.
The matching figures for `Cc1cc(-c2[nH]nc(C(=O)NC3CCN(CCCC(F)(F)F)CC3)c2C(C)C)cn2ncnc12` [Example 71]: 0.00692 µM, 0.019 µM and 5.81 µM.
For `Cc1cc(-c2[nH]nc(C(=O)NC3CN(C(C)C)C3)c2C(C)C)cn2ncnc12` [Example 155], in that order: 0.0415 µM, 0.0215 µM and > 50 µM.
Turning to `COc1cc(-c2[nH]nc(-c3cnc(C4CCN(CC5CCOCC5)CC4)cn3)c2C(C)C)cn2ncnc12` [Example 376], the IC50 came to 0.00454 µM against human TLR7, 0.0028 µM against human TLR8 and 6.3 µM at human TLR9.

(Values after US20230117470A1, “SUBSTITUTED PYRAZOLE COMPOUNDS AS TOLL RECEPTOR INHIBITORS” (BRISTOL-MYERS SQUIBB COMPANY, priority 2019, published 2023).)
